Data reported in PubChem BioAssay (NCI).
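A five-concentration, 48-hour dose response in 96-well plates underlies each endpoint, interpolated linearly between surrounding concentrations. TGI: total growth inhibition.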

How the values were obtained:
Test in all cases: NCI-60 cell line screen, 48 h
[1] = system: SF-268 CNS
[2] = system: COLO 205 colon
[3] = system: SK-OV-3 ovarian
[4] = system: M14 melanoma
[5] = system: SNB-19 CNS
[6] = system: SF-295 CNS
[7] = system: MDA-MB-435
[8] = system: RXF 393 renal
[9] = system: NCI-H23 lung
[10] = system: SK-MEL-5 melanoma
[11] = system: UACC-62 melanoma
[12] = system: HT29 colon
[13] = system: SF-539 CNS
[14] = system: OVCAR-3 ovarian
[15] = system: NCI-H460 lung
[16] = system: MDA-N
[17] = system: 786-0 renal
[18] = system: U251 CNS
[19] = system: OVCAR-5 ovarian
[20] = system: HOP-92 NSCLC
[21] = system: A498 renal
[22] = system: HL-60(TB) leukemia
[23] = system: LOX IMVI melanoma
[24] = system: SNB-75 CNS
[25] = system: BT-549 breast
[26] = system: T-47D breast
[27] = system: SN12C renal
[28] = system: MDA-MB-231 breast
[29] = system: IGROV1 ovarian
[30] = system: CAKI-1 renal
[31] = system: EKVX NSCLC
[32] = system: HCT-116 colon
[33] = system: SK-MEL-28 melanoma
[34] = system: ACHN renal
[35] = system: A549 NSCLC
[36] = system: OVCAR-4 ovarian
[37] = system: MCF7 breast
[38] = system: UACC-257 melanoma
[39] = system: KM12 colon
[40] = system: NCI-H226 lung
[41] = system: HCT-15 colon
[42] = system: UO-31 renal
[43] = system: HCC-2998 colon
[44] = system: SK-MEL-2 melanoma
[45] = system: MOLT-4 leukemia
[46] = system: SW-620 colon
[47] = system: HOP-62 NSCLC
[48] = system: TK-10 renal
[49] = system: NCI/ADR-RES ovarian
[50] = system: DU-145 prostate
[51] = system: OVCAR-8 ovarian
[52] = system: K-562 leukemia
[53] = system: MALME-3M melanoma
[54] = system: RPMI-8226 leukemia
[55] = system: HS 578T breast
[56] = system: CCRF-CEM leukemia
[57] = system: PC-3 prostate
[58] = system: SR leukemia
[59] = system: NCI-H522 lung

Work on `CCOP(=O)(OCC)/C(=C\n1c(=S)[nH]c2cc(C)ccc21)C(=O)OC` yielded a TGI [1] of over 100 µM, a TGI [2] of over 100 µM and a TGI [3] of over 100 µM. For the same compound, the TGI [4] was over 100 µM, the TGI [5] was over 100 µM and the TGI [6] was over 100 µM. It also gave a TGI [7] of over 100 µM, a TGI [8] of over 100 µM and a TGI [9] of over 100 µM. For the same compound, the TGI [10] was over 100 µM, the TGI [11] was over 100 µM and the TGI [12] was over 100 µM. It also gave a TGI [13] of over 100 µM, a TGI [14] of over 100 µM and a TGI [15] of over 100 µM. For the same compound, the TGI [16] was over 100 µM, the TGI [17] was over 100 µM and the TGI [18] was over 100 µM. For the same compound, the TGI [19] was over 100 µM, the TGI [20] was over 100 µM and the TGI [21] was over 100 µM. It also gave a TGI [22] of over 100 µM, a TGI [23] of over 100 µM and a TGI [24] of over 100 µM. It also gave a TGI [25] of over 100 µM, a TGI [26] of over 100 µM and a TGI [27] of over 100 µM. For the same compound, the TGI [28] was over 100 µM, the TGI [29] was over 100 µM and the TGI [30] was over 100 µM. For the same compound, the TGI [31] was over 100 µM, the TGI [32] was over 100 µM and the TGI [33] was over 100 µM. It also gave a TGI [34] of over 100 µM, a TGI [35] of over 100 µM and a TGI [36] of over 100 µM. The TGI [37] was over 100 µM, the TGI [38] was over 100 µM and the TGI [39] was over 100 µM. For the same compound, the TGI [40] was over 100 µM, the TGI [41] was over 100 µM and the TGI [42] was over 100 µM. It also gave a TGI [43] of over 100 µM, a TGI [44] of over 100 µM and a TGI [45] of over 100 µM. It also gave a TGI [46] of over 100 µM, a TGI [47] of over 100 µM and a TGI [48] of over 100 µM. The TGI [49] was over 100 µM, the TGI [50] was over 100 µM and the TGI [51] was over 100 µM.
Work on `Cc1ccc2c(=O)cc(-c3ccc(Cl)cc3)[nH]c2n1` yielded a TGI [1] of over 100 µM, a TGI [52] of 29.1 µM and a TGI [53] of over 31.3 µM. The TGI [3] was over 100 µM, the TGI [4] was over 100 µM and the TGI [5] was over 100 µM. For the same compound, the TGI [6] was 53.8 µM, the TGI [7] was 5.5 µM and the TGI [8] was over 100 µM. For the same compound, the TGI [9] was over 100 µM, the TGI [10] was 14.6 µM and the TGI [11] was over 100 µM. It also gave a TGI [12] of over 29.4 µM, a TGI [13] of 36.8 µM and a TGI [14] of over 30.2 µM. The TGI [15] was over 100 µM, the TGI [54] was over 49.1 µM and the TGI [16] was 5.56 µM. It also gave a TGI [17] of over 100 µM, a TGI [18] of over 59.9 µM and a TGI [19] of over 100 µM. It also gave a TGI [20] of over 100 µM, a TGI [21] of over 100 µM and a TGI [22] of 8.8 µM. For the same compound, the TGI [23] was over 100 µM, the TGI [24] was over 27.9 µM and the TGI [26] was 26.3 µM. It also gave a TGI [27] of over 94.8 µM, a TGI [28] of 19.7 µM and a TGI [29] of over 100 µM. It also gave a TGI [30] of over 65.9 µM, a TGI [31] of over 100 µM and a TGI [32] of over 32.1 µM. The TGI [55] was over 100 µM, the TGI [33] was over 100 µM and the TGI [34] was over 100 µM. The TGI [35] was over 100 µM, the TGI [36] was over 100 µM and the TGI [37] was over 100 µM. It also gave a TGI [38] of over 67.7 µM, a TGI [39] of over 100 µM and a TGI [56] of over 100 µM. The TGI [40] was 82 µM, the TGI [57] was over 20.8 µM and the TGI [41] was over 41.3 µM. For the same compound, the TGI [42] was over 66.8 µM, the TGI [43] was over 63 µM and the TGI [44] was over 100 µM. The TGI [45] was over 43.3 µM, the TGI [46] was over 100 µM and the TGI [47] was over 100 µM. The TGI [48] was over 100 µM, the TGI [49] was over 28.3 µM and the TGI [50] was over 55.4 µM. The TGI [58] was over 100 µM, the TGI [59] was over 100 µM and the TGI [51] was over 100 µM.
For `O=C1C2=Cc3ccccc3OC2(O)Oc2cc(O)cc(O)c21` (centres undefined), the TGI [1] was over 100 µM, the TGI [52] was over 100 µM and the TGI [2] was over 100 µM. For the same compound, the TGI [53] was over 100 µM, the TGI [3] was over 100 µM and the TGI [4] was over 100 µM. The TGI [6] was over 100 µM, the TGI [7] was over 100 µM and the TGI [8] was over 100 µM. It also gave a TGI [9] of over 100 µM, a TGI [10] of over 100 µM and a TGI [11] of over 100 µM. For the same compound, the TGI [12] was over 100 µM, the TGI [13] was over 100 µM and the TGI [15] was over 100 µM. For the same compound, the TGI [54] was over 100 µM, the TGI [16] was over 100 µM and the TGI [17] was over 100 µM. It also gave a TGI [18] of over 100 µM, a TGI [19] of over 100 µM and a TGI [20] of over 100 µM. For the same compound, the TGI [21] was over 100 µM, the TGI [23] was over 100 µM and the TGI [24] was over 100 µM. It also gave a TGI [25] of over 100 µM, a TGI [26] of over 100 µM and a TGI [27] of over 100 µM. The TGI [28] was over 100 µM, the TGI [29] was over 100 µM and the TGI [30] was over 100 µM. For the same compound, the TGI [31] was over 100 µM, the TGI [32] was over 100 µM and the TGI [33] was over 100 µM. For the same compound, the TGI [34] was over 100 µM, the TGI [35] was over 100 µM and the TGI [36] was over 100 µM. The TGI [37] was over 100 µM, the TGI [38] was over 100 µM and the TGI [39] was over 100 µM. The TGI [56] was over 100 µM, the TGI [40] was over 100 µM and the TGI [57] was over 100 µM. It also gave a TGI [43] of over 100 µM, a TGI [44] of over 100 µM and a TGI [45] of over 100 µM. The TGI [46] was over 100 µM, the TGI [47] was over 100 µM and the TGI [48] was over 100 µM. The TGI [49] was over 100 µM, the TGI [50] was over 100 µM and the TGI [51] was over 100 µM.
